The text below walks through data of patent publication US6613786B2, “Thiophenyl triazol-3-one derivatives as smooth muscle relaxants” (Bristol-Myers Squibb Company, priority 2001, dated 2003).

The subject of this test is rat bladder strip. Kind of test: in vitro rat bladder strip model: inhibition of 10 μM carbachol induced contraction. The note with it: 1 h; test compound at 3 μM, one hour incubation; 10 μM carbachol induced contraction of rat bladder strip; percent inhibition over controls, normalized for vehicle effects. How it is done: The ability of the compounds of the present invention to relax smooth muscle tissue was assessed by their ability to inhibit carbachol induced contractions in mammalian smooth muscle tissue. More specifically, the compounds of the present invention were screened in an in vitro rat bladder strip model to estimate their inhibitory effects on 10 μM carbachol induced contraction of the rat bladder strip according to the following experimental protocol.
1. Bladder Strip Tissue Preparation
Male rats were sacrificed by decapitation, the bladder removed and cleaned of connective tissue. Strips of bladder were then cut from the bladder body and placed in organ baths, suspended between a fixed hook and a force transducer, containing oxygenated physiological buffer maintained at 37° C.
The bladder strips were primed by stimulating them with 10 μM carbachol to evoke a contraction. The strips were then washed multiple times with fresh physiological buffer and allowed to fully relax. Following a period of recovery, the strips were again challenged with 10 μM carbachol to produce a contraction; this contractile response served as control response. The strips were again washed multiple times and allowed to fully relax (45 minutes). Test compound (3 μM) or vehicle was then added to each organ bath. Following a one hour incubation period, the strips were again stimulated with 10 μM carbachol and the contractile response measured.
The percent inhibition of the carbachol response by the test compounds was calculated by comparing control and post-compound carbachol responses normalized for vehicle effects. The percentage inhibition for each compound at 3 μM concentration is provided below in Table 1.
In turn, `O=c1[nH]c(-c2cc(Cl)cs2)nn1-c1cc(Cl)ccc1O` [Example 5, 5-(4-Chlorothiophen-2-yl)-2-(5-chloro-2-hydroxyphenyl)-2,4-dihydro-[1,2,4]triazol-3-one] returned an inhibition at 3 µM of 35 to 50%.
Next, `O=c1[nH]c(-c2ccc(Br)s2)nn1-c1cc(Cl)cc(Br)c1O` [Example 21, 2-(3-Bromo-5-chloro-2-hydroxyphenyl)-5-(5-bromothiophen-2-yl)-2,4-dihydro-[1,2,4]triazol-3-one]: 20 to 35%; `C=CCc1cc(Cl)cc(-n2nc(-c3ccc(Br)s3)[nH]c2=O)c1O` [Example 20, 2-(3-Allyl-5-chloro-2-hydroxyphenyl)-5-(5-bromothiophen-2-yl)-2,4-dihydro-[1,2,4]triazol-3-one]: 20 to 35%; `O=c1[nH]c(-c2scc(Cl)c2Cl)nn1-c1cc(Cl)ccc1O` [Example 13, 2-(5-Chloro-2-hydroxyphenyl)-5-(3,4-dichlorothiophen-2-yl)-2,4-dihydro-[1,2,4]triazol-3-one]: 35 to 50%.
With `Cc1sc(-c2nn(-c3cc(Cl)ccc3O)c(=O)[nH]2)cc1Br` [Example 17, 5-(4-Bromo-5-methylthiophen-2-yl)-2-(5-chloro-2-hydroxyphenyl)-2,4-dihydro-[1,2,4]triazol-3-one], the inhibition at 3 µM is 20 to 35%.
In the case of `O=c1[nH]c(-c2sc(Cl)c(Cl)c2Cl)nn1-c1cc(Cl)ccc1O` [Example 16, 2-(5-Chloro-2-hydroxyphenyl)-5-(3,4,5-trichlorothiophen-2-yl)-2,4-dihydro-[1,2,4]triazol-3-one], the inhibition at 3 µM was 20 to 35%.
Take `O=c1[nH]c(-c2cc(Cl)sc2Cl)nn1-c1cc(Cl)ccc1O` [Example 19, 2-(5-Chloro-2-hydroxyphenyl)-5-(2,5-dichlorothiophen-3-yl)-2,4-dihydro-[1,2,4]triazol-3-one]: the inhibition at 3 µM lay within 35 to 50%.
The result for `O=c1[nH]c(-c2cc(Br)c(Br)s2)nn1-c1cc(Cl)ccc1O` [Example 9, 2-(5-Chloro-2-hydroxyphenyl)-5-(4,5-dibromothiophen-2-yl)-2,4-dihydro-[1,2,4]triazol-3-one] reads 5 to 20%; that for `O=c1[nH]c(-c2cc(Br)c(Cl)s2)nn1-c1cc(Cl)ccc1O` [Example 11, 5-(4-Bromo-5-chlorothiophen-2-yl)-2-(5-chloro-2-hydroxyphenyl)-2,4-dihydro-[1,2,4]triazol-3-one], 20 to 35%.
Next, `O=c1[nH]c(-c2ccc(Br)s2)nn1-c1cc(Cl)ccc1O` [Example 1, 5-(5-Bromothiophen-2-yl)-2-(5-chloro-2-hydroxyphenyl)-2,4-dihydro-[1,2,4]triazol-3-one]: 35 to 50%; `O=c1[nH]c(-c2sc(Br)cc2Br)nn1-c1cc(Cl)ccc1O` [Example 14, 2-(5-Chloro-2-hydroxyphenyl)-5-(3,5-dibromothiophen-2-yl)-2,4-dihydro-[1,2,4]triazol-3-one]: 35 to 50%; `O=c1[nH]c(-c2ccc(Cl)s2)nn1-c1cc(Br)ccc1O` [Example 31, 2-(5-Bromo-2-hydroxyphenyl)-5-(5-chlorothiophen-2-yl)-2,4-dihydro-[1,2,4]triazol-3-one]: 20 to 35%.
Next, `O=c1[nH]c(-c2ccc(Br)s2)nn1-c1cc(Cl)c(Br)cc1O` [Example 25, 2-(4-Bromo-5-chloro-2-hydroxyphenyl)-5-(5-bromothiophen-2-yl)-2,4-dihydro-[1,2,4]triazol-3-one]: 20 to 35%; `O=c1[nH]c(-c2ccc(Cl)s2)nn1-c1cc(F)ccc1O` [Example 32, 5-(5-Chlorothiophen-2-yl)-2-(5-fluoro-2-hydroxyphenyl)-2,4-dihydro-[1,2,4]triazol-3-one]: 35 to 50%; `O=c1[nH]c(-c2cc(Br)cs2)nn1-c1cc(Cl)ccc1O` [Example 4, 5-(4-Bromothiophen-2-yl)-2-(5-chloro-2-hydroxyphenyl)-2,4-dihydro-[1,2,4]triazol-3-one]: 35 to 50%.
The molecule `O=c1[nH]c(-c2cc(Br)sc2Br)nn1-c1cc(Cl)ccc1O` [Example 18, 2-(5-Chloro-2-hydroxyphenyl)-5-(2,5-dibromothiophen-3-yl)-2,4-dihydro-[1,2,4]triazol-3-one] gave an inhibition at 3 µM of 20 to 35%.
Regarding `O=c1[nH]c(-c2ccc(Br)s2)nn1-c1cc(C(F)(F)F)ccc1O` [Example 26, 5-(5-Bromothiophen-2-yl)-2-(2-hydroxy-5-trifluoromethylphenyl)-2,4-dihydro-[1,2,4]triazol-3-one], the inhibition at 3 µM lay in the range of 35 to 50%.
As for `O=c1[nH]c(-c2ccc(Br)s2)nn1-c1cc(Cl)cc(Cl)c1O` [Example 23, 5-(5-Bromothiophen-2-yl)-2-(3,5-dichloro-2-hydroxyphenyl)-2,4-dihydro-[1,2,4]triazol-3-one], the inhibition at 3 µM lay within 20 to 35%.
Molecule `CC=Cc1cc(Cl)cc(-n2nc(-c3ccc(Br)s3)[nH]c2=O)c1O` [Example 29, 5-(5-Bromothiophen-2-yl)-2-(5-chloro-2-hydroxy-3-(prop-1-en-1-yl)phenyl)-2,4-dihydro-[1,2,4]triazol-3-one] displayed an inhibition at 3 µM of 20 to 35%.
For `O=c1[nH]c(-c2sccc2Br)nn1-c1cc(Cl)ccc1O` [Example 6, 5-(3-Bromothiophen-2-yl)-2-(5-chloro-2-hydroxyphenyl)-2,4-dihydro-[1,2,4]triazol-3-one], the inhibition at 3 µM fell in the range of 35 to 50%.
Next, `O=c1[nH]c(-c2ccc(I)s2)nn1-c1cc(Cl)ccc1O` [Example 3, 2-(5-Chloro-2-hydroxyphenyl)-5-(5-iodothiophen-2-yl)-2,4-dihydro-[1,2,4]triazol-3-one]: 35 to 50%; `O=c1[nH]c(-c2scc(Br)c2Br)nn1-c1cc(Cl)ccc1O` [Example 12, 2-(5-Chloro-2-hydroxyphenyl)-5-(3,4-dibromothiophen-2-yl)-2,4-dihydro-[1,2,4]triazol-3-one]: 20 to 35%.
Next, `O=c1[nH]c(-c2sccc2Cl)nn1-c1cc(Cl)ccc1O` [Example 7, 2-(5-Chloro-2-hydroxyphenyl)-5-(3-chlorothiophen-2-yl)-2,4-dihydro-[1,2,4]triazol-3-one]: 35 to 50%; `CCCc1cc(Cl)cc(-n2nc(-c3cccs3)[nH]c2=O)c1O` [Example 30, 2-(5-Chloro-2-hydroxy-3-propylphenyl)-5-(thiophen-2-yl)-2,4-dihydro-[1,2,4]triazol-3-one]: 20 to 35%.
Molecule `O=c1[nH]c(-c2ccc(Cl)s2)nn1-c1cc(Cl)ccc1O` [Example 2, 2-(5-Chloro-2-hydroxyphenyl)-5-(5-chlorothiophen-2-yl)-2,4-dihydro-[1,2,4]triazol-3-one] registered an inhibition at 3 µM of 35 to 50%.
`Cc1cc(O)c(-n2nc(-c3ccc(Br)s3)[nH]c2=O)cc1Cl` [Example 24, 5-(5-Bromothiophen-2-yl)-2-(5-chloro-2-hydroxy-4-methylphenyl)-2,4-dihydro-[1,2,4]triazol-3-one] showed an inhibition at 3 µM of 20 to 35%.
The result for `O=c1[nH]c(-c2cc(Cl)c(Cl)s2)nn1-c1cc(Cl)ccc1O` [Example 10, 2-(5-Chloro-2-hydroxyphenyl)-5-(4,5-dichlorothiophen-2-yl)-2,4-dihydro-[1,2,4]triazol-3-one] reads 20 to 35%.
Next, `O=c1[nH]c(-c2sc(Br)c(Br)c2Br)nn1-c1cc(Cl)ccc1O` [Example 15, 2-(5-Chloro-2-hydroxyphenyl)-5-(3,4,5-tribromothiophen-2-yl)-2,4-dihydro-[1,2,4]triazol-3-one]: 5 to 20%.
The result for `Cc1cc(Cl)cc(-n2nc(-c3ccc(Br)s3)[nH]c2=O)c1O` [Example 22, 5-(5-Bromothiophen-2-yl)-2-(5-chloro-2-hydroxy-3-methylphenyl)-2,4-dihydro-[1,2,4]triazol-3-one] reads 20 to 35%.
The molecule `O=c1[nH]c(-c2ccc(Br)s2)nn1-c1cc(F)ccc1O` [Example 28, 5-(5-Bromothiophen-2-yl)-2-(5-fluoro-2-hydroxyphenyl)-2,4-dihydro-[1,2,4]triazol-3-one] came in with an inhibition at 3 µM of 20 to 35%.
Next, `O=c1[nH]c(-c2sccc2I)nn1-c1cc(Cl)ccc1O` [Example 8, 2-(5-Chloro-2-hydroxyphenyl)-5-(3-iodothiophen-2-yl)-2,4-dihydro-[1,2,4]triazol-3-one]: 20 to 35%.
Next, `O=c1[nH]c(-c2ccc(Br)s2)nn1-c1cc(Br)ccc1O` [Example 27, 2-(5-Bromo-2-hydroxyphenyl)-5-(5-bromothiophen-2-yl)-2,4-dihydro-[1,2,4]triazol-3-one]: 35 to 50%.

By inhibition is commonly meant the change of the read-out against control, counted positive when it falls.
